# Patent US12440525B2 (priority 2017, dated 2025)
# Structures can show the parent of a compound that is named as a salt. Where two headings read alike, the source gives them in different places.
# Legend:
# VSVΔ51 [1] = type: cell-based, Vesicular stomatitis virus
# VSVΔ51 [2] = type: cell-based, Vesicular stomatitis virus; remark: listed apart in the source
# STAT1 [3] = type: cell-based, human
# 786-0 cells = type: cell-based, human
# VSVΔ51 [4] = type: cell-based, Vesicular stomatitis virus; remark: listed apart in the source
# wild-type VSV (wtVSV) = type: cell-based, Vesicular stomatitis virus
# HT29 tumors = conditions: mouse, in vivo
# VSVΔ51 [5] = type: cell-based, Vesicular stomatitis virus; remark: listed apart in the source
# VSVΔ51 [6] = type: cell-based, Vesicular stomatitis virus; remark: listed apart in the source
# VSVΔ51 [7] = type: cell-based, Vesicular stomatitis virus; remark: listed apart in the source
# Sindbis virus = type: cell-based
# E1A-deleted Ad5 = type: cell-based, adenovirus serotype 5
# wtVSV = type: cell-based, Vesicular stomatitis virus
# VSV-viral proteins = type: cell-based, Vesicular stomatitis virus
# VSVΔ51 [8] = type: cell-based, Vesicular stomatitis virus; remark: listed apart in the source
# STAT2 = type: cell-based, human
# VSVΔ51 [9] = type: cell-based, Vesicular stomatitis virus; remark: listed apart in the source
# CT26WT cells = type: cell-based, murine
# VSVΔ51 [10] = type: cell-based, Vesicular stomatitis virus; remark: listed apart in the source
# VSVΔ51 [11] = type: cell-based, Vesicular stomatitis virus; remark: listed apart in the source
# HSV-1 mutant N212 = type: cell-based, herpes simplex virus
# CT26WT tumors = conditions: mouse, in vivo
# NF-κB subunit p65 = type: cell-based, human
# STAT1 [12] = type: cell-based, human; remark: listed apart in the source
# IFITM1 = type: cell-based, human
# B16F10 cells = type: cell-based, murine
# B16F10 tumors = conditions: mouse, in vivo
# [13] = tested on: replication incompetent lentivirus; type: cell-based
smiles,measurement,setting,value
"CCOC(=O)/C=C/C(=O)OCC [DEF, diethyl fumarate]","VSVΔ51 infection, spread, and oncolysis",VSVΔ51 [1],robustly enhanced
same,"VSVΔ51 infection, spread, and oncolysis",VSVΔ51 [2],robustly enhanced
"CCOC(=O)/C=C\C(=O)OCC [DEM, diethyl maleate]","VSVΔ51 infection, spread, and oncolysis",VSVΔ51 [1],robustly enhanced
same,"VSVΔ51 infection, spread, and oncolysis",VSVΔ51 [2],robustly enhanced
same,STAT1 phosphorylation in cells conditioned with IFNβ,STAT1 [3],inhibited STAT1 phosphorylation
"COC(=O)/C=C/C(=O)OC [DMF, dimethyl fumarate]","cell viability, combined treatment with VSVΔ51",786-0 cells,synergistic decrease in cell viability
same,VSVΔ51 infection in panel of cancer cell lines,VSVΔ51 [4],robustly enhanced infection
same,infection of 786-0 cells by wild-type VSV,wild-type VSV (wtVSV),no impact on infection
same,"survival, combination therapy compared with either monotherapy",HT29 tumors,significantly prolonged survival
same,"tumor progression, combination therapy DMF + VSVΔ51",HT29 tumors,considerable delay in tumor progression
same,virus-associated luciferase gene expression in tumors,HT29 tumors,enhanced virus-associated luciferase gene expression
same,VSVΔ51 infection in patient-derived cancer cell lines,VSVΔ51 [5],increased VSVΔ51 infection
same,increase of VSVΔ51 infection ex vivo in primary human tumor samples,VSVΔ51 [6],> 10 fold
same,virus growth in human normal tissues,VSVΔ51 [7],did not improve virus growth
same,viral output of Sindbis virus,Sindbis virus,improved viral output
same,increase of luciferase transgene expression,E1A-deleted Ad5,up to 20 fold
same,protective (suppressive) effect of VSVΔ51ΔG-infected cell supernatant on subsequent infection,wtVSV,completely overcome this suppressive effect
same,VSV-viral proteins,VSV-viral proteins,increased
same,average plaque diameter of VSVΔ51,VSVΔ51 [8],substantially increased
same,activation (phosphorylation) of STAT2,STAT2,decreased activation (phosphorylation)
same,protective (suppressive) effect of VSVΔ51ΔG-infected cell supernatant on subsequent infection,VSVΔ51 [9],completely overcome this suppressive effect
same,"cell viability, combined treatment with VSVΔ51",CT26WT cells,synergistic decrease in cell viability
same,virus growth in normal tissue cores,VSVΔ51 [10],did not increase virus growth
same,antiviral effects of Type I IFN pretreatment on VSVΔ51 infection,VSVΔ51 [11],antagonized the antiviral effects
same,Virus-encoded GFP expression,VSVΔ51 [1],greatly enhanced
same,increase of VSVΔ51 virus growth,VSVΔ51 [1],more than 100 fold
same,infection of VSVΔ51,VSVΔ51 [1],enhanced infection
same,pre-treatment time prior to infection at which the enhancing effect was observed,VSVΔ51 [1],up to 24 hours
same,time post-infection of treatment at which the enhancing effect was observed,VSVΔ51 [1],up to 8 hours
same,"viral output of VSVΔ51, growth curve at low MOI",VSVΔ51 [1],enhanced the viral output
same,viral output of oncolytic herpes virus,HSV-1 mutant N212,improved viral output
same,challenge of cured mice with a foreign tumor,CT26WT tumors,grew 4T1 tumors at a similar rate as the naive mice
same,"mice with complete remission, combination therapy",CT26WT tumors,approximately 20%
same,re-challenge of cured mice with the same cancer cells,CT26WT tumors,immune to re-challenge
same,"survival, combination therapy compared with either monotherapy",CT26WT tumors,significantly prolonged survival
same,"tumor progression, combination therapy DMF + VSVΔ51",CT26WT tumors,considerable delay in tumor progression
same,virus-associated luciferase gene expression in tumors,CT26WT tumors,enhanced virus-associated luciferase gene expression
same,phosphorylation and translocation of NF-κB subunit p65 upon TNFα stimulation,NF-κB subunit p65,inhibits phosphorylation and translocation
same,phosphorylation and translocation of NF-κB subunit p65 upon infection,NF-κB subunit p65,inhibits phosphorylation and translocation
same,activation (phosphorylation) of STAT1,STAT1 [12],decreased activation (phosphorylation)
same,expression levels of the antiviral protein IFITM1,IFITM1,potently repressed
same,STAT1 phosphorylation in cells conditioned with IFNβ,STAT1 [3],inhibited STAT1 phosphorylation
same,"cell viability, combined treatment with VSVΔ51",B16F10 cells,synergistic decrease in cell viability
same,"mice with complete remission, combination therapy",B16F10 tumors,approximately 20%
same,"survival, combination therapy compared with either monotherapy",B16F10 tumors,significantly prolonged survival
same,"tumor progression, combination therapy DMF + VSVΔ51",B16F10 tumors,considerable delay in tumor progression
"COC(=O)/C=C\C(=O)OC [DMM, dimethyl maleate]","VSVΔ51 infection, spread, and oncolysis",VSVΔ51 [1],robustly enhanced
same,"VSVΔ51 infection, spread, and oncolysis",VSVΔ51 [2],robustly enhanced
"COC(=O)CCC(=O)OC [DMS, dimethyl succinate]",viral output of VSVΔ51,VSVΔ51 [1],no impact on viral output
"O=C(O)/C=C/C(=O)O [FA, fumaric acid]",infection of VSVΔ51 / viral growth,VSVΔ51 [1],no impact on viral growth
"COC(=O)/C=C/C(=O)O [MMF, monomethyl fumarate]",increase in lentivirus yield,[13],2.4 fold
